According to ChEMBL document CHEMBL4507310, “Data for DCP probe A-1211212” (2021):

Columns and labels:
[1] = molecular target: D(2) dopamine receptor (Homo sapiens) (UniProt P14416); test: D2S (h) Eurofins-Cerep binding assay; parameters: ligand concentration 0.3 nM; conditions: filed as antagonist, Compound concentration 10.0 uM
[2] = molecular target: Serine/threonine-protein kinase Sgk3 (Homo sapiens) (UniProt Q96BR1); conditions: Compound concentration 1000.0 nM
[3] = molecular target: Cannabinoid receptor 1 (Homo sapiens) (UniProt P21554); test: CB1 (h) Eurofins-Cerep binding assay; parameters: ligand concentration 0.5 nM; conditions: filed as agonist, Compound concentration 10.0 uM
[4] = molecular target: GABA-A receptor; alpha-1/beta-2/gamma-2 (Homo sapiens) (UniProt P14867+P47870+P18507); test: GABAA1 (h) (alpha1,beta2,gamma2) Eurofins-Cerep binding assay; format: protein-complex assay; parameters: ligand concentration 15 nM; conditions: filed as agonist, Compound concentration 10.0 uM
[5] = molecular target: Adenosine receptor A2b (Homo sapiens) (UniProt P29275); test: A2B (h) Eurofins-Cerep binding assay; parameters: ligand concentration 5 nM; conditions: filed as antagonist, Compound concentration 10.0 uM
[6] = molecular target: Beta-1 adrenergic receptor (Homo sapiens) (UniProt P08588); test: Beta1 (h) Eurofins-Cerep binding assay; parameters: ligand concentration 0.3 nM; conditions: filed as agonist, Compound concentration 10.0 uM
[7] = molecular target: Mitogen-activated protein kinase kinase kinase 5 (Homo sapiens) (UniProt Q99683); conditions: Compound concentration 1000.0 nM
[8] = tested on: Serine/threonine-protein kinase B-raf (Homo sapiens), P15056 [V600E]; conditions: Compound concentration 1000.0 nM
[9] = tested on: ALK tyrosine kinase receptor (Homo sapiens), Q9UM73 [C1156Y]; conditions: Compound concentration 1000.0 nM
[10] = molecular target: Serine/threonine-protein kinase Nek3 (Homo sapiens) (UniProt P51956); conditions: Compound concentration 1000.0 nM
[11] = molecular target: Receptor-type tyrosine-protein kinase FLT3 (Homo sapiens) (UniProt P36888); conditions: Compound concentration 1000.0 nM
[12] = molecular target: Serine/threonine-protein kinase 33 (Homo sapiens) (UniProt Q9BYT3); conditions: Compound concentration 1000.0 nM
[13] = molecular target: Serine/threonine-protein kinase 32A (Homo sapiens) (UniProt Q8WU08); conditions: Compound concentration 1000.0 nM
[14] = molecular target: Serine/threonine-protein kinase 16 (Homo sapiens) (UniProt O75716); conditions: Compound concentration 1000.0 nM
Rattus norvegicus = species on record: Rattus norvegicus; test: SKCa channel Eurofins-Cerep binding assay; parameters: ligand concentration 0.007 nM; conditions: filed as antagonist, Compound concentration 10.0 uM
[15] = tested on: Epidermal growth factor receptor (Homo sapiens), P00533 [T790M]; conditions: Compound concentration 1000.0 nM
[16] = molecular target: RAC-alpha serine/threonine-protein kinase (Homo sapiens) (UniProt P31749); conditions: Compound concentration 1000.0 nM
[17] = molecular target: Mitogen-activated protein kinase 7 (Homo sapiens) (UniProt Q13164); conditions: Compound concentration 1000.0 nM
[18] = molecular target: Hormonally up-regulated neu tumor-associated kinase (Homo sapiens) (UniProt P57058); conditions: Compound concentration 1000.0 nM
[19] = molecular target: Mitogen-activated protein kinase kinase kinase 9 (Homo sapiens) (UniProt P80192); conditions: Compound concentration 1000.0 nM
[20] = molecular target: Cyclin-dependent kinase 2 homolog (Plasmodium falciparum (isolate 3D7)) (UniProt P61075); conditions: Compound concentration 1000.0 nM
[21] = molecular target: Activin receptor type-2B (Homo sapiens) (UniProt Q13705); conditions: Compound concentration 1000.0 nM
[22] = molecular target: Rhodopsin kinase GRK1 (Homo sapiens) (UniProt Q15835); conditions: Compound concentration 1000.0 nM
[23] = tested on: Phosphatidylinositol 4,5-bisphosphate 3-kinase catalytic subunit alpha isoform (Homo sapiens), P42336 [I800L]; conditions: Compound concentration 1000.0 nM
[24] = molecular target: Mitogen-activated protein kinase kinase kinase 7 (Homo sapiens) (UniProt O43318); conditions: Compound concentration 1000.0 nM
[25] = molecular target: Hepatocyte growth factor receptor (Homo sapiens) (UniProt P08581); conditions: Compound concentration 1000.0 nM
[26] = molecular target: Glutamate NMDA receptor (Rattus norvegicus) (UniProt P35439+Q00959+Q00960+Q00961+Q62645+Q8VHN2+Q9R1M7); test: PCP Eurofins-Cerep binding assay; format: protein-complex assay; parameters: ligand concentration 10 nM; conditions: filed as antagonist, Compound concentration 10.0 uM
[27] = molecular target: Mitogen-activated protein kinase kinase kinase 12 (Homo sapiens) (UniProt Q12852); conditions: Compound concentration 1000.0 nM
[28] = molecular target: Serine/threonine-protein kinase 17A (Homo sapiens) (UniProt Q9UEE5); conditions: Compound concentration 1000.0 nM
[29] = molecular target: Leucine-rich repeat serine/threonine-protein kinase 2 (Homo sapiens) (UniProt Q5S007); conditions: Compound concentration 1000.0 nM
[30] = molecular target: Mitogen-activated protein kinase kinase kinase 20 (Homo sapiens) (UniProt Q9NYL2); conditions: Compound concentration 1000.0 nM
[31] = tested on: Tyrosine-protein kinase ABL1 (Homo sapiens), P00519 [T315I]; conditions: Compound concentration 1000.0 nM
[32] = molecular target: Cyclin-dependent kinase 15 (Homo sapiens) (UniProt Q96Q40); conditions: Compound concentration 1000.0 nM
[33] = molecular target: Serine/threonine-protein kinase 25 (Homo sapiens) (UniProt O00506); conditions: Compound concentration 1000.0 nM
[34] = molecular target: Tyrosine-protein kinase receptor UFO (Homo sapiens) (UniProt P30530); conditions: Compound concentration 1000.0 nM
[35] = molecular target: Cyclin-dependent kinase 19 (Homo sapiens) (UniProt Q9BWU1); conditions: Compound concentration 1000.0 nM
[36] = molecular target: 5-hydroxytryptamine receptor 1E (Homo sapiens) (UniProt P28566); conditions: Compound concentration 10.0 uM
[37] = molecular target: Sodium-dependent serotonin transporter (Homo sapiens) (UniProt P31645); conditions: Compound concentration 10.0 uM
[38] = molecular target: Tyrosine-protein kinase Fyn (Homo sapiens) (UniProt P06241); conditions: Compound concentration 1000.0 nM
[39] = molecular target: Proto-oncogene tyrosine-protein kinase receptor Ret (Homo sapiens) (UniProt P07949); conditions: Compound concentration 1000.0 nM
[40] = molecular target: Vasopressin V1a receptor (Homo sapiens) (UniProt P37288); test: V1 a (h) Eurofins-Cerep binding assay; parameters: ligand concentration 0.3 nM; conditions: filed as agonist, Compound concentration 10.0 uM
[41] = molecular target: Protein kinase C delta type (Homo sapiens) (UniProt Q05655); conditions: Compound concentration 1000.0 nM
[42] = molecular target: Serine/threonine-protein kinase tousled-like 2 (Homo sapiens) (UniProt Q86UE8); conditions: Compound concentration 1000.0 nM
[43] = molecular target: Protein kinase C theta type (Homo sapiens) (UniProt Q04759); conditions: Compound concentration 1000.0 nM
[44] = molecular target: Dual specificity protein kinase CLK2 (Homo sapiens) (UniProt P49760); conditions: Compound concentration 1000.0 nM

Sequence of Serine/threonine-protein kinase 32A (Homo sapiens) (Q8WU08 whole entry): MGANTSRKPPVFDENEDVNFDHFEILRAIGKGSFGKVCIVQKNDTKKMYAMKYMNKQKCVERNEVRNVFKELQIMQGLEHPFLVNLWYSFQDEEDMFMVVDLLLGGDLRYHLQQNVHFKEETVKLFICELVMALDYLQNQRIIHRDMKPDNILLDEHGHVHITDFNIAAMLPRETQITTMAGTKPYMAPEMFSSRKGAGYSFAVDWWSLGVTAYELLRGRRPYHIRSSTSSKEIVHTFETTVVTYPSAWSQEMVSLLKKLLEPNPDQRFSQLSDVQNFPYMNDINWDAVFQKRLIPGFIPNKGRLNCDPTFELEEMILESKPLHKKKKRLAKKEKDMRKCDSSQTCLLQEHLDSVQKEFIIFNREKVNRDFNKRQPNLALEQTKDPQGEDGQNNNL
Sequence of Mitogen-activated protein kinase kinase kinase 9 (Homo sapiens) (P80192 whole entry, looked up): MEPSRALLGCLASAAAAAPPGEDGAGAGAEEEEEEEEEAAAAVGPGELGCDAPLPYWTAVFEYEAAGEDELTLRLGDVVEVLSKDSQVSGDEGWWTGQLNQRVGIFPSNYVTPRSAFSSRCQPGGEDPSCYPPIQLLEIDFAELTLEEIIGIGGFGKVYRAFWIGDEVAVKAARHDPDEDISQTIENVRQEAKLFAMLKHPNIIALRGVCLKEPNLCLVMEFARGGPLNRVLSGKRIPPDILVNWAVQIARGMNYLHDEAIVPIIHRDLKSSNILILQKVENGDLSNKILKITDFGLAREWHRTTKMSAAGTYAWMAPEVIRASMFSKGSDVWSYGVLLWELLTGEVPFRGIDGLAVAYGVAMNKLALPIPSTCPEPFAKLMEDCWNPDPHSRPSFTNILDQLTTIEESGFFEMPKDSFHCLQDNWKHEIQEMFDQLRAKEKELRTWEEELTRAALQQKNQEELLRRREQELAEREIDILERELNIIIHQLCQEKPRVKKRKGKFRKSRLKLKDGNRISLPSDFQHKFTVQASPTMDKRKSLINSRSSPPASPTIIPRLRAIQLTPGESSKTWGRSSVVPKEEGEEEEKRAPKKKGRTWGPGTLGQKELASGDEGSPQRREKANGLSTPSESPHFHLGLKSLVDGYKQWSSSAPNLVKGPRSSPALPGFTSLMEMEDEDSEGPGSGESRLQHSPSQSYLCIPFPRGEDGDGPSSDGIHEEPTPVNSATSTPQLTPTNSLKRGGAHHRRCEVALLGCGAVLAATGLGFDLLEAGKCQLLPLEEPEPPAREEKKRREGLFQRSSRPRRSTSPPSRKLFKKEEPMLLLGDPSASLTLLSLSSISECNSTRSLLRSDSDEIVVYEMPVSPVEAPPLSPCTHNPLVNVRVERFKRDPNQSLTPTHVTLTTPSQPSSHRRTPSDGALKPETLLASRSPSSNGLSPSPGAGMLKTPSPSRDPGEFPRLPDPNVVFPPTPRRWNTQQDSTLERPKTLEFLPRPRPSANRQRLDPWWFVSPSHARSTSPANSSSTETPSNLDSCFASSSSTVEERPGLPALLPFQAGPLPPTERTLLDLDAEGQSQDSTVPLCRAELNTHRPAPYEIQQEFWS
Sequence of Mitogen-activated protein kinase kinase kinase 20 (Homo sapiens) (Q9NYL2 2-800 limits assumed): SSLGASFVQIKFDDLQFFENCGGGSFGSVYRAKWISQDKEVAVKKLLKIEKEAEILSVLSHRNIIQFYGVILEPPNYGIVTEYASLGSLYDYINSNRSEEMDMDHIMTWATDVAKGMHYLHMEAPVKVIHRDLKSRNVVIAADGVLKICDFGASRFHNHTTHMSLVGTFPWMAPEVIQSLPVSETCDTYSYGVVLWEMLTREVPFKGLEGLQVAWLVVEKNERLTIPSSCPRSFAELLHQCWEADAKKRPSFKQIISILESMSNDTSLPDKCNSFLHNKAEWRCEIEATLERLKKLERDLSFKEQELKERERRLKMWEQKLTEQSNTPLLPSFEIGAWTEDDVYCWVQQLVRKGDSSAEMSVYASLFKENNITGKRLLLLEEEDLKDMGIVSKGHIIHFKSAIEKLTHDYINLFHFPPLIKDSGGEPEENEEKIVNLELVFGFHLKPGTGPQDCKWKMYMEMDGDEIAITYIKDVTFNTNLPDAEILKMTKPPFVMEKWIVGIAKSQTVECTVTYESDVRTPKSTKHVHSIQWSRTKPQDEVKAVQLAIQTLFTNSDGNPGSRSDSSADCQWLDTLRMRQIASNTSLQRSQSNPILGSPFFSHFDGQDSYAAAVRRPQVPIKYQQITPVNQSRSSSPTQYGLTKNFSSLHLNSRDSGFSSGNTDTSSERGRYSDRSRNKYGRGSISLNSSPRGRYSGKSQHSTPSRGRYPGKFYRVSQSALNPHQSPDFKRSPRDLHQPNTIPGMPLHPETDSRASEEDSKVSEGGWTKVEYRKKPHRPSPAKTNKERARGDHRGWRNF
Sequence of D(2) dopamine receptor (Homo sapiens) (P14416 whole entry): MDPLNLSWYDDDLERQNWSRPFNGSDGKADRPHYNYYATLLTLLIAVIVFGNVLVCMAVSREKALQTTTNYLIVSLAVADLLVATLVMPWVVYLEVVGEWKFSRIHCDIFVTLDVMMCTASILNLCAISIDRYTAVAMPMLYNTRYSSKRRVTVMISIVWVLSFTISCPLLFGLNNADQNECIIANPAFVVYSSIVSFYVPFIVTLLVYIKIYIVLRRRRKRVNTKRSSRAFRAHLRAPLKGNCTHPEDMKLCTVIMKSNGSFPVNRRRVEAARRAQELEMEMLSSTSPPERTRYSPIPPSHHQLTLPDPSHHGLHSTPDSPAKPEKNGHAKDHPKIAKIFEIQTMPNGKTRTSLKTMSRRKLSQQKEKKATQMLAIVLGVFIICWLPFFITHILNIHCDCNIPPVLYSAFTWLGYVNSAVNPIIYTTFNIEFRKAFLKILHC
Sequence of Serine/threonine-protein kinase B-raf (Homo sapiens), P15056 [V600E] (P15056 whole entry V600E): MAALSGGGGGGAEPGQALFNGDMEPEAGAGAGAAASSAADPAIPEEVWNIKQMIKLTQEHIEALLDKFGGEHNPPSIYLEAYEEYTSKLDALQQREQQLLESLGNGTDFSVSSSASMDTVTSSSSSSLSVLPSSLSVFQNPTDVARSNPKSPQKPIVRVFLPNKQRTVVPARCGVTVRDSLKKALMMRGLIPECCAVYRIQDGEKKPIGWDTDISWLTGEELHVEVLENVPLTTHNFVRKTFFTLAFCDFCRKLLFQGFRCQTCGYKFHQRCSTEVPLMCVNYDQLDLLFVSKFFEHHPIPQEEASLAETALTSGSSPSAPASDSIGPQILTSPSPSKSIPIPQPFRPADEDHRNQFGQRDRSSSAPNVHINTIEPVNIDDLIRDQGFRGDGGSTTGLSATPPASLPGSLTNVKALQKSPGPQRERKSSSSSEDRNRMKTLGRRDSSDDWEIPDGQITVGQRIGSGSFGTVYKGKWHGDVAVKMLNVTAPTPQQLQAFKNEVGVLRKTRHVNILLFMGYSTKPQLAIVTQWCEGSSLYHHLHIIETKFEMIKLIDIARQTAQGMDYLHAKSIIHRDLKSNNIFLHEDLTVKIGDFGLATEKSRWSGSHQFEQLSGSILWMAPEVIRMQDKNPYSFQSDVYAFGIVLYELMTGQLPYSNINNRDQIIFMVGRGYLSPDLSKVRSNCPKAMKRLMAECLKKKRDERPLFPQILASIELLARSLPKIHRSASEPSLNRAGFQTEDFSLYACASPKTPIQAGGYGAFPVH
Sequence of Activin receptor type-2B (Homo sapiens) (Q13705 whole entry): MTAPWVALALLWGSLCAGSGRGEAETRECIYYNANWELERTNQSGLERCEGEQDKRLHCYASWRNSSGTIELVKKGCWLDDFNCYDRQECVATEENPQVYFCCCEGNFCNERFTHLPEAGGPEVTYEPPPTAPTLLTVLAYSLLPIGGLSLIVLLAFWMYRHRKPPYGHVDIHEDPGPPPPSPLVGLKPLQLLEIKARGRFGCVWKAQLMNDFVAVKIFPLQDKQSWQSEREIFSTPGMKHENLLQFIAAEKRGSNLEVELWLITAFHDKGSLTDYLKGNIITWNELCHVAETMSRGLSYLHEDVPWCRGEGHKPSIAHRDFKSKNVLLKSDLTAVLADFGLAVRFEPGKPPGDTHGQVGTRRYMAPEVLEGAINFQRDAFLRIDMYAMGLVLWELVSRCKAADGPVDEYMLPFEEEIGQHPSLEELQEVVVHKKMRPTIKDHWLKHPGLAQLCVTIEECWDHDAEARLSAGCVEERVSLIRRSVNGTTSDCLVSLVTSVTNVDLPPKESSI
Sequence of Mitogen-activated protein kinase kinase kinase 12 (Homo sapiens) (Q12852 whole entry): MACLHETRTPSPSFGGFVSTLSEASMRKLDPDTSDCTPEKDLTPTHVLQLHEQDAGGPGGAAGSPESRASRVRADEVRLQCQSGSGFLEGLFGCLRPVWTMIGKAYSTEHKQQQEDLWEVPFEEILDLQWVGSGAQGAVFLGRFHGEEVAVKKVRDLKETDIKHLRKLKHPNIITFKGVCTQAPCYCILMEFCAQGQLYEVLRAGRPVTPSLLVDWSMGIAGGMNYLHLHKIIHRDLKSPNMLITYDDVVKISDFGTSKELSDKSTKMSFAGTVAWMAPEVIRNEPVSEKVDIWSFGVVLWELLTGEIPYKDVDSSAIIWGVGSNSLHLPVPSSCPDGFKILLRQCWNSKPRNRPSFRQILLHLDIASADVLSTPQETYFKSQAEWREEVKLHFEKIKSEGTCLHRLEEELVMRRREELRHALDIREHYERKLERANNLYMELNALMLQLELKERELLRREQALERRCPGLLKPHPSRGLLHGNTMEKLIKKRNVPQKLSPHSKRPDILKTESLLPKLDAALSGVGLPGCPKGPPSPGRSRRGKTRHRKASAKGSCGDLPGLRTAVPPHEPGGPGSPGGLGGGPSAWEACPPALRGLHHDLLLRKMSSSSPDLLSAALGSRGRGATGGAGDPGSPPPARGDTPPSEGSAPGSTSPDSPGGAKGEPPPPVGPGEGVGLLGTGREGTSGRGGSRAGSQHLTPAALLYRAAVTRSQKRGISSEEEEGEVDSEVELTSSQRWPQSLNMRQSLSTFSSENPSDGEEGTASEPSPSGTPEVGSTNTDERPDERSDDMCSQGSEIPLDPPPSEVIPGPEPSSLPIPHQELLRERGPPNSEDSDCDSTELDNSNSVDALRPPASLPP

O=C(NS(=O)(=O)c1ccc(NCC2CCOCC2)c([N+](=O)[O-])c1)c1ccc(N2CCN(Cc3ccc(C(F)(F)F)cc3-c3ccc(Cl)cc3)CC2)cc1Oc1cnc2[nH]ccc2c1 [A-1210227]
19.2%: % Inhibition of Control Specific Binding (Mean n=2) [26]
3.5%: % Inhibition of Control Specific Binding (Mean n=2) [40]
15.2%: % Inhibition of Control Specific Binding (Mean n=2) [1]
-13.7%: % Inhibition of Control Specific Binding (Mean n=2) [3]
-4.8%: % Inhibition of Control Specific Binding (Mean n=2) (Rattus norvegicus)
-0.7%: % Inhibition of Control Specific Binding (Mean n=2) [4]
-10.1%: % Inhibition of Control Specific Binding (Mean n=2) [5]
-8.2%: % Inhibition of Control Specific Binding (Mean n=2) [6]
inactive: residual activity [2] 92% | residual activity [7] 82% | residual activity [8] 83% | residual activity [9] 100% | residual activity [10] 85% | residual activity [11] 100% | residual activity [12] 100% | residual activity [13] 99% | residual activity [14] 91% | residual activity [15] 98% | residual activity [16] 74% | residual activity [17] 100% | residual activity [18] 100% | residual activity [19] 100% | residual activity [20] 100% | residual activity [21] 94% | residual activity [22] 100% | residual activity [23] 100% | residual activity [24] 100% | residual activity [25] 93% | residual activity [27] 100% | residual activity [28] 100% | residual activity [29] 100% | residual activity [30] 100% | residual activity [31] 100% | residual activity [32] 100% | residual activity [33] 98% | residual activity [34] 88% | residual activity [35] 90% | inhibition [36] 10.4% | inhibition [37] -8.19% | residual activity [38] 100% | residual activity [39] 96% | residual activity [41] 100% | residual activity [42] 100% | residual activity [43] 100% | residual activity [44] 99%

CO[C@H]1CC[C@H](CNc2ccc(S(=O)(=O)NC(=O)c3ccc(N4CCN(CC5=C(c6ccc(Cl)cc6)CC(C)(C)CC5)CC4)cc3Oc3cnc4[nH]ccc4c3)cc2[N+](=O)[O-])CC1 [A-1211212]
-12.2%: % Inhibition of Control Specific Binding (Mean n=2) [4]
1.9%: % Inhibition of Control Specific Binding (Mean n=2) [26]
-12.6%: % Inhibition of Control Specific Binding (Mean n=2) (Rattus norvegicus)
10.3%: % Inhibition of Control Specific Binding (Mean n=2) [1]
inactive: residual activity [2] 99% | residual activity [7] 78% | residual activity [8] 93% | residual activity [9] 100% | residual activity [10] 66% | residual activity [11] 100% | residual activity [12] 100% | residual activity [13] 99% | residual activity [14] 79% | residual activity [15] 98% | residual activity [16] 72% | residual activity [17] 88% | residual activity [18] 100% | residual activity [19] 84% | residual activity [20] 100% | residual activity [21] 95% | residual activity [22] 72% | residual activity [23] 98% | residual activity [24] 100% | residual activity [25] 68% | residual activity [27] 100% | residual activity [28] 88% | residual activity [29] 100% | residual activity [30] 100% | residual activity [31] 80% | residual activity [32] 100% | residual activity [33] 83% | residual activity [34] 94% | residual activity [35] 73% | inhibition [36] -1.62% | inhibition [37] 25.1% | residual activity [38] 97% | residual activity [39] 100% | residual activity [41] 70% | residual activity [42] 87% | residual activity [43] 89% | residual activity [44] 100%
-36.3%: % Inhibition of Control Specific Binding (Mean n=2) [5]
-6.4%: % Inhibition of Control Specific Binding (Mean n=2) [3]
4.2%: % Inhibition of Control Specific Binding (Mean n=2) [40]
-10.9%: % Inhibition of Control Specific Binding (Mean n=2) [6]
